What all share (format): cell-based, murine
In one assay the test system is B16F10 melanoma cells. Briefly: Visual pigmentation of B16F10 cells and culture medium. The settings on record: 10-50 μg/ml, 5 days, medium change at day 3. Here is the method: B16F10 melanoma cells were treated with 10-50 μg/ml peptide of SEQ ID NO: 1 (“Lf B-17-34”) for 5 days with a medium change at day 3. The cells and medium were recovered in test tubes. Kojic acid is used as negative control in the cellular study due to known inhibitory effects on tyrosinase activity. IBMX is used as positive control in the cellular study due to known elevator of cellular cAMP level, to stimulate melanogenesis.
(§1) B16F10 murine melanoma cells were cultured in phenol red-free DMEM with 10% fetal bovine serum and penicillin/streptomycin (100 IU/50 […]) in a humidified atmosphere containing 5% CO2 in air at 37° C.

The test system of assay [1] is Tyrosinase. In words: Tyrosinase assay (cell lysate, L-DOPA). The settings on record: B16F10 cells, 10-50 μg/ml, 5 days. Here is the method: as §1
Tyrosinase is the rate limiting enzyme in the melanogenic pathway. Its measurement provides a highly specific and sensitive indication of degree of induction of melanogenesis. Tyrosinase enzyme activity of cultured B16F10 cells were measured according to the method of (Bellei et al., J Biol Chem 285, 7288-7299, 2010) with a slight modification. Briefly, B16F10 cells were seeded in 6-well plate (2×10^4 cells/well) and incubated overnight to allow cells to adhere. After treating with various test samples in an incubator for 5 days, cells were washed with PBS and then harvested using trypsin. At the end point, the cells were solubilized with phosphate buffer (pH 6.8) containing 1% Triton X-100. The cells were then disrupted by freezing and thawing, and the lysates were clarified by centrifugation at 10,000×g for 10 min. After protein quantification and adjustment of protein concentrations with lysis buffer, 100 μl of each lysate (each containing the same amount of protein) were aliquoted into the wells of a 96-well plate, and 100 μl of 5 mM L-DOPA were then added to each well. The absorbance was measured spectrophotometrically at 475 nm following a […] incubation period at 37° C. […]

The subject of the next assay is B16F10 cells. Briefly: Melanin content assay. The settings on record: 10-50 μg/ml, 5 days. Here is the method: as §1
Melanin contents of cultured B16F10 cells were measured according to the method (Lee et al., J Invest Dermatol 124, 405-411, 2005) with a slight modification. Briefly, B16F10 cells were seeded in 6-well plate (2×10^4 cells/well) and incubated overnight to allow cells to adhere. After treating with various test samples in an incubator for 5 days, washed, trypsinized and counted before pelleting. Melanin per cell was quantified after boiling in 1 M NaOH for 1 hour and melanin content in each sample was read from a calibration curve against synthetic eumelanin at 400 nm and converted to means±SE melanin pg/cell from 3 independent experiments.

For assay [2], the system named is Tyrosinase. Briefly: DOPA staining. The settings on record: B16F10 cells, 10-50 μg/ml, 4 days. Here is the method:
as §1
DOPA staining was also performed to measure tyrosinase enzyme activity. B16F10 cells were seeded in 6-well plate (2×10^4 cells/well) and incubated overnight to allow cells to adhere. After treating with various test samples in an incubator for 4 days, cells were washed with PBS, fixation with 2% paraformaldehyde and washing with PBS a further three times, the cells were incubated with 0.1% DOPA (dissolved in 0.1 M PBS) at 37° C. for 5 hour, and observed using light microscopy (Wang et al., Exp Ther Med 6, 967-972, 2013).

The text below walks through data of patent US9895303B2, “Peptide, method and composition for stimulating melanogenesis” (Renorigin Innovation Institute Co., Ltd., priority 2016, dated 2018).

On to “FKCRRWQWRMKKLGAPSI (listed as Bos taurus) [Lf B-17-34]”, for which the “pigmentation in cells and in medium” value in the assay on B16F10 melanoma cells was “hyper pigmentation in cells as in medium to a similar extent”. In addition, in the assay on Tyrosinase [1], the tyrosinase activity result was “significantly increased tyrosinase activity”. In addition, in the assay with B16F10 cells, the “melanin synthesis (melanin content in cells, melanin secretion in medium)” value is “significantly increased melanin synthesis in a concentration-dependent manner”. Also, the DOPA staining result in the assay on Tyrosinase [2] is reported as “strong DOPA staining”.
